Experimental data from patent publication US20120045393A1 (priority 2009, published 2012).
Non-standard residues stand in square brackets, D forms with d. Residues, ends and D or L forms follow the SMILES beside them. *: point of attachment. DOTA = O=C(O)CN1CCN(CC(=O)O)CCN(CC(=O)*)CCN(CC(=O)O)CC1; Bpa = N[C@@H](Cc1ccc(C(=O)c2ccccc2)cc1)C(=O)O; d2Nal = N[C@H](Cc1ccc2ccccc2c1)C(=O)O; Nicotinoyl = O=C(c1cccnc1)*; azaGly = NNC(=O)O; Sar = CNCC(=O)O

system: LHRH binding sites on human ovarian cancer cells (EFO-27); details: not given
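Further: Cell-associated radioactivity on confluent EFO-27 monolayers in 96-well plates, measured by microplate scintillation counting.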

First: CN(CC(=O)N[C@@H](Cc1c[nH]cn1)C(=O)N[C@@H](Cc1c[nH]c2ccccc12)C(=O)N[C@@H](CO)C(=O)N[C@@H](Cc1c[nH]cn1)C(=O)N[C@H](CCCNC(=N)N)C(=O)N[C@@H](Cc1c[nH]c2ccccc12)C(=O)N1CCC[C@H]1C(=O)NNC(N)=O)C(=O)CN1CCN(CC(=O)O)CCN(CC(=O)O)CCN(CC(=O)O)CC1 [BRU-2767] (HELM PEPTIDE1{[O=C(O)CN1CCN(CC(=O)O)CCN(CC(=O)[*:2])CCN(CC(=O)O)CC1].[Sar].H.W.S.H.[dR].W.P.[O=C(NN[*:1])[*:2]].[am]}$$$$V2.0)
Second: CN(CC(=O)N[C@@H](Cc1c[nH]cn1)C(=O)N[C@@H](Cc1c[nH]c2ccccc12)C(=O)N[C@@H](CO)C(=O)N[C@@H](Cc1c[nH]cn1)C(=O)N[C@H](CCCNC(=N)N)C(=O)N[C@@H](Cc1c[nH]c2ccccc12)C(=O)N[C@@H](CC1CCCCC1)C(=O)N1CCC[C@H]1C(=O)NNC(N)=O)C(=O)CN1CCN(CC(=O)O)CCN(CC(=O)O)CCN(CC(=O)O)CC1 [BRU-2718]
The EC50 of the first is 16-fold higher: 10 µM for the first, 0.63 µM for the second.

`CNCC(=O)N[C@@H](CCCNC(=N)N)C(=O)N[C@@H](Cc1c[nH]c2ccccc12)C(=O)N[C@@H](CO)C(=O)N[C@@H](Cc1c[nH]cn1)C(=O)N[C@H](CCCNC(=N)N)C(=O)N[C@@H](Cc1c[nH]c2ccccc12)C(=O)N[C@@H](Cc1ccc(C(=O)c2ccccc2)cc1)C(=O)N1CCC[C@H]1C(=O)N1CCCCC1CNC(=O)CN1CCN(CC(=O)O)CCN(CC(=O)O)CCN(CC(=O)O)CC1` (stereo partly shown) [BRU-3102] and `CNCC(=O)N[C@@H](CCCNC(=N)N)C(=O)N[C@@H](Cc1c[nH]c2ccccc12)C(=O)N[C@@H](CO)C(=O)N[C@@H](Cc1c[nH]cn1)C(=O)N[C@H](CCCNC(=N)N)C(=O)N[C@@H](Cc1c[nH]c2ccccc12)C(=O)N[C@@H](Cc1ccc(C(=O)c2ccccc2)cc1)C(=O)N1CCC[C@H]1C(=O)NCCNC(=O)CN1CCN(CC(=O)O)CCN(CC(=O)O)CCN(CC(=O)O)CC1` [BRU-3103] cannot be ordered by EC50: at most 0.2 µM for the first, at most 0.2 µM for the second.

Going from `N=C(N)NCCC[C@H](NC(=O)[C@@H](Cc1ccc2ccccc2c1)NC(=O)[C@@H](N)CCCCNC(=O)CN1CCN(CC(=O)O)CCN(CC(=O)O)CCN(CC(=O)O)CC1)C(=O)N[C@@H](Cc1c[nH]c2ccccc12)C(=O)N[C@@H](CO)C(=O)N[C@@H](Cc1c[nH]cn1)C(=O)N[C@H](CCCNC(=N)N)C(=O)N[C@@H](Cc1c[nH]c2ccccc12)C(=O)N[C@@H](Cc1ccc(C(=O)c2ccccc2)cc1)C(=O)N1CCC[C@H]1C(=O)NNC(N)=O` [BRU 3098] to `N=C(N)NCCC[C@H](NC(=O)[C@H](N)Cc1ccc2ccccc2c1)C(=O)N[C@@H](Cc1c[nH]c2ccccc12)C(=O)N[C@@H](CO)C(=O)N[C@@H](Cc1c[nH]cn1)C(=O)N[C@H](CCCNC(=N)N)C(=O)N[C@@H](Cc1c[nH]c2ccccc12)C(=O)N[C@@H](Cc1ccc(C(=O)c2ccccc2)cc1)C(=O)N1CCC[C@H]1C(=O)NCCCCNC(=O)CN1CCN(CC(=O)O)CCN(CC(=O)O)CCN(CC(=O)O)CC1` [BRU-3042], the EC50 falls from 0.41 µM to at most 0.2 µM. The second is the more potent here.

Compared with `N=C(N)NCCC[C@H](NC(=O)[C@@H](Cc1ccc2ccccc2c1)NC(=O)CN1CCN(CC(=O)O)CCN(CC(=O)O)CCN(CC(=O)O)CC1)C(=O)N[C@@H](Cc1c[nH]c2ccccc12)C(=O)N[C@@H](CO)C(=O)N[C@@H](Cc1c[nH]cn1)C(=O)N[C@H](CCCNC(=N)N)C(=O)N[C@@H](Cc1c[nH]c2ccccc12)C(=O)N[C@@H](Cc1ccc(C(=O)c2ccccc2)cc1)C(=O)N1CCC[C@H]1C(=O)N[C@H](CO)Cc1ccccc1` [compound 2983], `N=C(N)NCCC[C@H](NC(=O)[C@@H](Cc1ccc2ccccc2c1)NC(=O)CN1CCN(CC(=O)O)CCN(CC(=O)O)CCN(CC(=O)O)CC1)C(=O)N[C@@H](Cc1c[nH]c2ccccc12)C(=O)N[C@@H](CO)C(=O)N[C@@H](Cc1c[nH]cn1)C(=O)N[C@H](CCCNC(=N)N)C(=O)N[C@@H](Cc1c[nH]c2ccccc12)C(=O)N[C@@H](Cc1ccc(C(=O)c2ccccc2)cc1)C(=O)N1CCC[C@H]1C(=O)NCCCO` [compound 2982] is 2.5-fold higher in EC50: 0.45 µM for the first, 1.13 µM for the second. The first is the more potent here.

First: N=C(N)NCCC[C@H](NC(=O)[C@@H](Cc1ccc2ccccc2c1)NC(=O)CN1CCN(CC(=O)O)CCN(CC(=O)O)CCN(CC(=O)O)CC1)C(=O)N[C@@H](Cc1c[nH]c2ccccc12)C(=O)N[C@@H](CO)C(=O)N[C@@H](Cc1cscn1)C(=O)N[C@H](CCCNC(=N)N)C(=O)N[C@@H](Cc1c[nH]c2ccccc12)C(=O)N[C@@H](Cc1ccc(C(=O)c2ccccc2)cc1)C(=O)N1CCC[C@H]1C(=O)NNC(N)=O [compound 2958]
Second: N=C(N)NCCC[C@H](NC(=O)[C@@H](Cc1ccc2ccccc2c1)NC(=O)CN1CCN(CC(=O)O)CCN(CC(=O)O)CCN(CC(=O)O)CC1)C(=O)N[C@@H](Cc1c[nH]c2ccccc12)C(=O)N[C@@H](Cc1c[nH]c2ccccc12)C(=O)N[C@@H](Cc1c[nH]cn1)C(=O)N[C@H](CCCNC(=N)N)C(=O)N[C@@H](Cc1c[nH]c2ccccc12)C(=O)N[C@@H](Cc1ccc(C(=O)c2ccccc2)cc1)C(=O)N1CCC[C@H]1C(=O)NNC(N)=O [compound 3114] ({DOTA}-[d2Nal]RWWH[dR]W[Bpa]P[azaGly]-NH2)
The EC50 of the first is 16-fold lower: 0.71 µM for the first, 11.5 µM for the second.

Compared with `CNCC(=O)N[C@@H](CCCNC(=N)N)C(=O)N[C@@H](Cc1c[nH]c2ccccc12)C(=O)N[C@@H](CO)C(=O)N[C@@H](Cc1c[nH]cn1)C(=O)N[C@H](CCCNC(=N)N)C(=O)N[C@@H](Cc1c[nH]c2ccccc12)C(=O)N[C@@H](Cc1ccc(C(=O)c2ccccc2)cc1)C(=O)N1CCC[C@H]1C(=O)NCc1cccc(CNC(=O)CN2CCN(CC(=O)O)CCN(CC(=O)O)CCN(CC(=O)O)CC2)n1` [BRU-3080], `CNCC(=O)N[C@@H](CCCNC(=N)N)C(=O)N[C@@H](Cc1c[nH]c2ccccc12)C(=O)N[C@@H](CO)C(=O)N[C@@H](Cc1c[nH]cn1)C(=O)N[C@H](CCCNC(=N)N)C(=O)N[C@@H](Cc1c[nH]c2ccccc12)C(=O)N[C@@H](Cc1ccc(C(=O)c2ccccc2)cc1)C(=O)N1CCC[C@H]1C(=O)NCCNC(=O)CN1CCN(CC(=O)O)CCN(CC(=O)O)CCN(CC(=O)O)CC1` [compound 3103] is lower in EC50: 0.23 to 0.5 µM for the first, 0.17 ± 0.07 µM for the second.

Going from `CN(CC(=O)N[C@@H](Cc1c[nH]cn1)C(=O)N[C@@H](Cc1c[nH]c2ccccc12)C(=O)N[C@@H](CO)C(=O)N[C@@H](Cc1c[nH]cn1)C(=O)N[C@H](CCCCNC(=O)c1cccnc1)C(=O)N[C@@H](Cc1c[nH]c2ccccc12)C(=O)N[C@@H](Cc1ccc(O)cc1)C(=O)N1CCC[C@H]1C(=O)NNC(N)=O)C(=O)CN1CCN(CC(=O)O)CCN(CC(=O)O)CCN(CC(=O)O)CC1` [compound 2674] ({DOTA}-[Sar]HWSH[dK](Nicotinoyl)WYP[azaGly]-NH2) to `CNCC(=O)N[C@@H](CCCNC(=N)N)C(=O)N[C@@H](Cc1c[nH]c2ccccc12)C(=O)N[C@@H](CO)C(=O)N[C@@H](Cc1c[nH]cn1)C(=O)N[C@H](CCCNC(=N)N)C(=O)N[C@@H](Cc1c[nH]c2ccccc12)C(=O)N[C@@H](Cc1ccc(C(=O)c2ccccc2)cc1)C(=O)N1CCC[C@H]1C(=O)NCCCNC(=O)CN1CCN(CC(=O)O)CCN(CC(=O)O)CCN(CC(=O)O)CC1` [compound 3076], the EC50 falls from 22.6 µM to 0.75 ± 0.04 µM (30-fold).

Compared with `N=C(N)NCCC[C@H](NC(=O)[C@H](N)Cc1ccc2ccccc2c1)C(=O)N[C@@H](Cc1c[nH]c2ccccc12)C(=O)N[C@@H](CO)C(=O)N[C@@H](Cc1c[nH]cn1)C(=O)N[C@H](CCCNC(=N)N)C(=O)N[C@@H](Cc1c[nH]c2ccccc12)C(=O)N[C@@H](Cc1ccc(C(=O)c2ccccc2)cc1)C(=O)N1CCC[C@H]1C(=O)NCC(=O)NCCCCNC(=O)CN1CCN(CC(=O)O)CCN(CC(=O)O)CCN(CC(=O)O)CC1` [BRU-2990], `CNCC(=O)N[C@@H](CCCNC(=N)N)C(=O)N[C@@H](Cc1c[nH]c2ccccc12)C(=O)N[C@@H](CO)C(=O)N[C@@H](Cc1c[nH]cn1)C(=O)N[C@H](CCCNC(=N)N)C(=O)N[C@@H](Cc1c[nH]c2ccccc12)C(=O)N[C@@H](Cc1ccc(C(=O)c2ccccc2)cc1)C(=O)N1CCC[C@H]1C(=O)NCCOCCNC(=O)CN1CCN(CC(=O)O)CCN(CC(=O)O)CCN(CC(=O)O)CC1` [compound 3039] is lower in EC50: over 30 µM for the first, 0.28 ± 0.03 µM for the second.

First: CNCC(=O)N[C@@H](CCCNC(=N)N)C(=O)N[C@@H](Cc1c[nH]c2ccccc12)C(=O)N[C@@H](CO)C(=O)N[C@@H](Cc1c[nH]cn1)C(=O)N[C@H](CCCNC(=N)N)C(=O)N[C@@H](Cc1c[nH]c2ccccc12)C(=O)N[C@@H](Cc1ccc(C(=O)c2ccccc2)cc1)C(=O)N1CCC[C@H]1C(=O)NCCCN1CCN(CCCNC(=O)CN2CCN(CC(=O)O)CCN(CC(=O)O)CCN(CC(=O)O)CC2)CC1 [BRU-3044]
Second: N=C(N)NCCC[C@H](NC(=O)[C@H](N)Cc1ccc2ccccc2c1)C(=O)N[C@@H](Cc1c[nH]c2ccccc12)C(=O)N[C@@H](CO)C(=O)N[C@@H](Cc1c[nH]cn1)C(=O)N[C@H](CCCNC(=N)N)C(=O)N[C@@H](Cc1c[nH]c2ccccc12)C(=O)N[C@@H](Cc1ccc(C(=O)c2ccccc2)cc1)C(=O)N1CCC[C@H]1C(=O)NCC(=O)NCCCCNC(=O)CN1CCN(CC(=O)O)CCN(CC(=O)O)CCN(CC(=O)O)CC1 [compound 2990]
The EC50 of the first is lower: 0.23 to 0.5 µM for the first, 30.2 ± 8.28 µM for the second. The first is the more potent here.

same assay, conditions: EFO-27 cells, competition with [125I-Tyr8]BRU-2477, 90 min

`N=C(N)NCCC[C@H](NC(=O)[C@@H](Cc1ccc2ccccc2c1)NC(=O)CN1CCN(CC(=O)O)CCN(CC(=O)O)CCN(CC(=O)O)CC1)C(=O)N[C@@H](Cc1c[nH]c2ccccc12)C(=O)N[C@@H](CO)C(=O)N[C@@H](Cc1c[nH]cn1)C(=O)N[C@H](CCCNC(=N)N)C(=O)N[C@@H](Cc1c[nH]c2ccccc12)C(=O)N[C@@H](Cc1ccc(C(=O)c2ccccc2)cc1)C(=O)N1CCCC[C@H]1C(=O)NNC(N)=O` [compound 2996] showed an EC50 of 0.35 µM.

same assay, conditions: Table 8: N-substituted amino acid at position 1 and Gly as linker; in vitro binding on EFO-27 cells

Work on `COCCN(CC(=O)N[C@@H](Cc1c[nH]cn1)C(=O)N[C@@H](Cc1c[nH]c2ccccc12)C(=O)N[C@@H](CO)C(=O)N[C@@H](Cc1c[nH]cn1)C(=O)N[C@H](CCCNC(=N)N)C(=O)N[C@@H](Cc1c[nH]c2ccccc12)C(=O)N[C@@H](Cc1ccc(C(=O)c2ccccc2)cc1)C(=O)N1CCC[C@H]1C(=O)NNC(N)=O)C(=O)CNC(=O)CN1CCN(CC(=O)O)CCN(CC(=O)O)CCN(CC(=O)O)CC1` [compound 2796] yielded an EC50 of 0.34 µM.

same assay, conditions: Table 19: analogs used in the stabilization studies

“BRU-2994: DO3A10CM-Dnal2-R-W-S-H-r-W-Bpa4-Flp4-azaG” gave an EC50 of 0.6 µM.

same assay, conditions: read-out: EC50 μM; Underivatized LHRH peptides and LHRH peptides with chelator on N-terminus; EFO-27 cells

“BRU-2994: DO3A10CM-Dnal2-R-W-S-H-r-W-Bpa4-Flp4-azaG” gave an EC50 of 0.6 µM.
